Laboratory results reported in the supplement of paper PMC11061612.

Key:
Assay in all cases: combination Emax (second highest fraction inhibited in the dose matrix, 72 h); higher = more inhibition; extreme values may be limits of the assay
[1] = system: 697 (B-Lymphoblastic Leukemia)
In short: (§1)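 After 24 hours at 37°C and 5% CO2 in 1536-well plates, cells in DMEM/F12 or RPMI plus 10% FBS received two-drug dose matrices for 72 hours. Viability came from CellTiter-Glo 2.0 luminescence and was scaled as inhibition, anchored at 0 by vehicle wells and at 1 by blank wells. Combination Emax is taken as the second-highest inhibition in the matrix, and Bliss excess as the observed combination effect less EA + EB − EA·EB, with EA and EB the single-agent effects.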

[2] = system: C3A (Hepatocellular Carcinoma)
In short: as §1

CAL-78 (Chondrosarcoma) = system: CAL-78 (Chondrosarcoma)
In short: as §1

[3] = system: CFPAC-1 (Pancreatic Carcinoma)
In short: as §1

[4] = system: EM-2 (Chronic Myelogenous Leukemia)
In short: as §1

IGR-1 (Melanoma) = system: IGR-1 (Melanoma)
In short: as §1

[5] = system: IHH-4 (Thyroid Gland Carcinoma)
In short: as §1

J82 (Bladder Carcinoma) = system: J82 (Bladder Carcinoma)
In short: as §1

[6] = system: JiyoyeP-2003 (Burkitt's Lymphoma)
In short: as §1

[7] = system: KARPAS-620 (Plasma Cell Myeloma)
In short: as §1

[8] = system: KATOIII (Gastric Carcinoma)
In short: as §1

RH-1 (Ewing's Sarcoma) = system: RH-1 (Ewing's Sarcoma)
In short: as §1

SK-N-FI (Neuroblastoma) = system: SK-N-FI (Neuroblastoma)
In short: as §1

SN12C (Kidney Carcinoma) = system: SN12C (Kidney Carcinoma)
In short: as §1

[9] = system: SNU-C5 (Colorectal Carcinoma)
In short: as §1

[10] = system: SW756 (Cervical Carcinoma)
In short: as §1

[11] = system: TGBC24TKB (Biliary Tract Carcinoma)
In short: as §1

[12] = system: U-266 (Plasma Cell Myeloma)
In short: as §1

[13] = system: HCC2157 (Breast Carcinoma)
In short: as §1

[14] = system: NCI-H1694 (Small Cell Lung Carcinoma)
In short: as §1

SMILES | combination Emax [1] | combination Emax [2] | combination Emax (CAL-78 (Chondrosarcoma)) | combination Emax [3] | combination Emax [4] | combination Emax (IGR-1 (Melanoma)) | combination Emax [5] | combination Emax (J82 (Bladder Carcinoma)) | combination Emax [6] | combination Emax [7] | combination Emax [8] | combination Emax (RH-1 (Ewing's Sarcoma)) | combination Emax (SK-N-FI (Neuroblastoma)) | combination Emax (SN12C (Kidney Carcinoma)) | combination Emax [9] | combination Emax [10] | combination Emax [11] | combination Emax [12] | combination Emax [13] | combination Emax [14]
C=CCn1c(=O)c2cnc(Nc3ccc(N4CCN(C)CC4)cc3)nc2n1-c1cccc(C(C)(C)O)n1 [AZD1775] + C1CN(CCC1(C(=O)N[C@@H](CCO)C2=CC=C(C=C2)Cl)N)C3=NC=NC4=C3C=CN4 [Capivasertib] (first compound max 3 µM, partner max 3 µM) | 1 | 0.62 | 0.733 | 0.723 | 0.948 | 0.482 | 0.91 | 0.468 | 0.931 | 0.857 | 0.476 | 0.98 | 0.628 | 0.359 | 0.795 | 0.555 | 0.811 | 0.795 | – | –
Cc1c2c(nn1C)CSCc1cc(n(C)n1)CSc1cc(c3ccccc3c1)OCCCc1c(C(=O)O)n(C)c3c-2c(Cl)ccc13 [AZD5991] + C=CCn1c(=O)c2cnc(Nc3ccc(N4CCN(C)CC4)cc3)nc2n1-c1cccc(C(C)(C)O)n1 [AZD1775] (first compound max 1 µM, partner max 1 µM) | 1 | – | 0.853 | 0.555 | 0.983 | 0.63 | 0.684 | 0.314 | 0.987 | 1 | 0.237 | 0.994 | 0.744 | 0.358 | 0.732 | 0.427 | 0.672 | 0.99 | 0.979 | 0.961
COc1nnc2ccc(N3CCC(c4ccc(OCCN5CCN(C)C(=O)[C@H]5C)cc4)CC3)nn12 [AZD5153] + CN(CC[C@H](CSC1=CC=CC=C1)NC2=C(C=C(C=C2)S(=O)(=O)NC(=O)C3=CC=C(C=C3)N4CCC(CC4)[C@H](C5=CC=CC=C5C6=CC=C(C=C6)Cl)O)S(=O)(=O)C(F)(F)F)CCO [AZD4320] (first compound max 1 µM, 7x7, partner max 1 µM) | 1 | 0.489 | 0.8 | 0.401 | 0.988 | 0.909 | – | 0.397 | 0.893 | – | – | 0.49 | – | – | 0.569 | 0.34 | 0.932 | – | 1 | 1
